Data: patent publication US20100099561A1, “HETEROBICYCLIC ALKYLTHIO-BRIDGED ISOXAZOLINES” (E.I. DU PONT DE NEMOURS AND COMPANY, priority 2008, published 2010)

Legend:
Assay type in all cases: in vivo
[1] = system: corn (Zea mays); experiment: Test A preemergence, corn; conditions: 0 to 100 scale (0 no effect, 100 complete control)
How it was run: (§1)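 Pre: directed soil spray after sowing in loam/sand. Post: seedlings at 1–2 leaf stage, 2–10 cm. Vehicle: non-phytotoxic solvent mix + surfactant. Greenhouse ~10 d; visual injury 0–100 vs untreated controls.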

[2] = system: giant foxtail (Setaria faberi); experiment: Test A postemergence, giant foxtail; conditions: 0 to 100 scale (0 no effect, 100 complete control)
How it was run: as §1

[3] = system: morningglory (Ipomoea spp.); experiment: Test A postemergence, morningglory; conditions: 0 to 100 scale (0 no effect, 100 complete control)
How it was run: as §1

[4] = system: Italian ryegrass (Lolium multiflorum); experiment: Test B preemergence, Italian ryegrass; conditions: Preemergence, scale 0 to 100
Excerpt: (§2) Seeds of plant species selected from blackgrass (Alopecurus myosuroides), downy bromegrass (Bromus tectorum), green foxtail (Setaria viridis), Italian ryegrass (Lolium multiflorum), wheat (Triticum aestivum), wild oat (Avena fatua), catchweed bedstraw (Galium aparine), bermudagrass (Cynodon dactylon), Surinam grass (Brachiaria decumbens), cocklebur (Xanthium strumarium), corn (Zea mays), large crabgrass (Digitaria sanguinalis), woolly cupgrass (Eriochloa villosa), giant foxtail (Setaria faberii), goosegrass (Eleusine indica), johnsongrass (Sorghum halepense), kochia (Kochia scoparia), lambsquarters (Chenopodium album), morningglory (Ipomoea coccinea), nightshade (eastern black nightshade, Solanum ptycanthum), yellow nutsedge (Cyperus esculentus), pigweed (Amaranthus retroflexus), ragweed (common ragweed, Ambrosia elatior), soybean (Glycine max), sunflower (common oilseed sunflower, Helianthus annuus), Russian thistle (Salsola kali), and velvetleaf (Abutilon theophrasti) were planted into a blend of loam soil and sand and treated preemergence with test compounds formulated in a non-phytotoxic solvent mixture which included a surfactant. Treated plants and controls were maintained in a greenhouse for 13 to 15 days, after which time all species were compared to controls and visually evaluated. Plant response ratings, summarized in Table B, are based on a scale of 0 to 100 where 0 is no effect and 100 is complete control. A dash (-) response means no test result.

[5] = system: corn (Zea mays); experiment: Test B preemergence, corn; conditions: scale 0 to 100
Excerpt: as §2

[6] = system: kochia (Kochia scoparia); experiment: Test B preemergence, kochia; conditions: scale 0 to 100
Excerpt: as §2

[7] = system: yellow nutsedge (Cyperus esculentus); experiment: Test B preemergence, yellow nutsedge; conditions: scale 0 to 100
Excerpt: as §2

[8] = system: velvetleaf (Abutilon theophrasti); experiment: Test B preemergence, velvetleaf; conditions: Preemergence, scale 0 to 100
Excerpt: as §2

[9] = system: Russian thistle (Salsola kali); experiment: Test B preemergence, Russian thistle; conditions: scale 0 to 100
Excerpt: as §2

With `CC1(C)CC(S(=O)(=O)Cc2c(C(F)(F)Cl)nc3n(c2=O)CCC3)=NO1` [Compound 18] the “Plant response rating, Corn” value ([1]; 125 g ai/ha) was 0, the “Plant response rating, Corn” value ([1]; 500 g ai/ha) was 0 and the “Plant response rating, Foxtail, Giant” value ([2]; 125 g ai/ha) was 70. The “Plant response rating, Foxtail, Giant” value ([2]; 500 g ai/ha) was 80, the “Plant response rating, Morningglory” value ([3]; 125 g ai/ha) was 30 and the “Plant response rating, Morningglory” value ([3]; 500 g ai/ha) was 60. The “Plant response rating, Ryegrass, Italian” value ([4]; 16 g ai/ha) was 0, the “Plant response rating, Ryegrass, Italian” value ([4]; 31 g ai/ha) was 0 and the “Plant response rating, Ryegrass, Italian” value ([4]; 62 g ai/ha) was 35. The “Plant response rating, Ryegrass, Italian” value ([4]; 125 g ai/ha) was 40, the “Plant response rating, Corn” value ([5]; 16 g ai/ha) was 0 and the “Plant response rating, Corn” value ([5]; 31 g ai/ha) was 0. For the same compound, the “Plant response rating, Corn” value ([5]; 62 g ai/ha) was 0, the “Plant response rating, Corn” value ([5]; 125 g ai/ha) was 0 and the “Plant response rating, Kochia” value ([6]; 16 g ai/ha) was 0. The “Plant response rating, Kochia” value ([6]; 31 g ai/ha) was 0, the “Plant response rating, Kochia” value ([6]; 62 g ai/ha) was 55 and the “Plant response rating, Kochia” value ([6]; 125 g ai/ha) was 100. The “Plant response rating, Nutsedge, Yellow” value ([7]; 16 g ai/ha) was 0, the “Plant response rating, Nutsedge, Yellow” value ([7]; 31 g ai/ha) was 0 and the “Plant response rating, Nutsedge, Yellow” value ([7]; 62 g ai/ha) was 20. For the same compound, the “Plant response rating, Nutsedge, Yellow” value ([7]; 125 g ai/ha) was 45, the “Plant response rating, Velvetleaf” value ([8]; 16 g ai/ha) was 0 and the “Plant response rating, Velvetleaf” value ([8]; 31 g ai/ha) was 0. For the same compound, the “Plant response rating, Velvetleaf” value ([8]; 62 g ai/ha) was 0 and the “Plant response rating, Velvetleaf” value ([8]; 125 g ai/ha) was 0.

`CC1(C)CC(S(=O)(=O)Cc2c(C(F)(F)C(F)(F)F)nc3n(c2=O)CCCC3)=NO1` [Compound 21] was tested, and the “Plant response rating, Corn” value ([1]; 125 g ai/ha) was 0, the “Plant response rating, Corn” value ([1]; 500 g ai/ha) was 0 and the “Plant response rating, Foxtail, Giant” value ([2]; 125 g ai/ha) was 60. For the same compound, the “Plant response rating, Foxtail, Giant” value ([2]; 500 g ai/ha) was 70, the “Plant response rating, Morningglory” value ([3]; 125 g ai/ha) was 0 and the “Plant response rating, Morningglory” value ([3]; 500 g ai/ha) was 40. For the same compound, the “Plant response rating, Ryegrass, Italian” value ([4]; 16 g ai/ha) was 0, the “Plant response rating, Ryegrass, Italian” value ([4]; 31 g ai/ha) was 0 and the “Plant response rating, Ryegrass, Italian” value ([4]; 62 g ai/ha) was 0. For the same compound, the “Plant response rating, Ryegrass, Italian” value ([4]; 125 g ai/ha) was 40, the “Plant response rating, Corn” value ([5]; 16 g ai/ha) was 0 and the “Plant response rating, Corn” value ([5]; 31 g ai/ha) was 0. For the same compound, the “Plant response rating, Corn” value ([5]; 62 g ai/ha) was 0, the “Plant response rating, Corn” value ([5]; 125 g ai/ha) was 10 and the “Plant response rating, Kochia” value ([6]; 16 g ai/ha) was 0. For the same compound, the “Plant response rating, Kochia” value ([6]; 62 g ai/ha) was 60, the “Plant response rating, Kochia” value ([6]; 125 g ai/ha) was 80 and the “Plant response rating, Nutsedge, Yellow” value ([7]; 16 g ai/ha) was 0. For the same compound, the “Plant response rating, Nutsedge, Yellow” value ([7]; 31 g ai/ha) was 20, the “Plant response rating, Nutsedge, Yellow” value ([7]; 62 g ai/ha) was 60 and the “Plant response rating, Nutsedge, Yellow” value ([7]; 125 g ai/ha) was 90. For the same compound, the “Plant response rating, Russian Thistle” value ([9]; 16 g ai/ha) was 0, the “Plant response rating, Russian Thistle” value ([9]; 31 g ai/ha) was 60 and the “Plant response rating, Russian Thistle” value ([9]; 62 g ai/ha) was 65. For the same compound, the “Plant response rating, Russian Thistle” value ([9]; 125 g ai/ha) was 85, the “Plant response rating, Velvetleaf” value ([8]; 16 g ai/ha) was 0 and the “Plant response rating, Velvetleaf” value ([8]; 31 g ai/ha) was 0. The “Plant response rating, Velvetleaf” value ([8]; 62 g ai/ha) was 0 and the “Plant response rating, Velvetleaf” value ([8]; 125 g ai/ha) was 75.

`CC1(C)CC(S(=O)(=O)Cc2c(C(F)(F)C(F)(F)F)nc3n(c2=O)CCC3)=NO1` [Compound 22] was tested, and the “Plant response rating, Corn” value ([1]; 125 g ai/ha) was 0, the “Plant response rating, Corn” value ([1]; 500 g ai/ha) was 0 and the “Plant response rating, Foxtail, Giant” value ([2]; 125 g ai/ha) was 70. The “Plant response rating, Foxtail, Giant” value ([2]; 500 g ai/ha) was 80, the “Plant response rating, Morningglory” value ([3]; 125 g ai/ha) was 0 and the “Plant response rating, Morningglory” value ([3]; 500 g ai/ha) was 50. For the same compound, the “Plant response rating, Ryegrass, Italian” value ([4]; 16 g ai/ha) was 0, the “Plant response rating, Ryegrass, Italian” value ([4]; 31 g ai/ha) was 30 and the “Plant response rating, Ryegrass, Italian” value ([4]; 62 g ai/ha) was 100. For the same compound, the “Plant response rating, Ryegrass, Italian” value ([4]; 125 g ai/ha) was 100, the “Plant response rating, Corn” value ([5]; 16 g ai/ha) was 0 and the “Plant response rating, Corn” value ([5]; 31 g ai/ha) was 0. The “Plant response rating, Corn” value ([5]; 62 g ai/ha) was 0, the “Plant response rating, Corn” value ([5]; 125 g ai/ha) was 10 and the “Plant response rating, Kochia” value ([6]; 16 g ai/ha) was 0. The “Plant response rating, Kochia” value ([6]; 31 g ai/ha) was 0, the “Plant response rating, Kochia” value ([6]; 62 g ai/ha) was 0 and the “Plant response rating, Kochia” value ([6]; 125 g ai/ha) was 70. For the same compound, the “Plant response rating, Nutsedge, Yellow” value ([7]; 16 g ai/ha) was 0, the “Plant response rating, Nutsedge, Yellow” value ([7]; 31 g ai/ha) was 10 and the “Plant response rating, Nutsedge, Yellow” value ([7]; 62 g ai/ha) was 60. The “Plant response rating, Nutsedge, Yellow” value ([7]; 125 g ai/ha) was 80, the “Plant response rating, Russian Thistle” value ([9]; 31 g ai/ha) was 0 and the “Plant response rating, Russian Thistle” value ([9]; 62 g ai/ha) was 30. For the same compound, the “Plant response rating, Russian Thistle” value ([9]; 125 g ai/ha) was 60, the “Plant response rating, Velvetleaf” value ([8]; 16 g ai/ha) was 0 and the “Plant response rating, Velvetleaf” value ([8]; 31 g ai/ha) was 0. The “Plant response rating, Velvetleaf” value ([8]; 62 g ai/ha) was 60 and the “Plant response rating, Velvetleaf” value ([8]; 125 g ai/ha) was 100.
